In patent publication US11000033B2, “Ketone or oxime compound, and herbicide” (NISSAN CHEMICAL CORPORATION, priority 2014, dated 2021):

How the values were obtained:
Format in all cases: in vivo
[1] = test system: Leptochloa chinensis; assay: Test Example 3: herbicidal effect by foliage application, Wagner pot (symbol D); settings: application herbicide amount 320 g/ha
Procedure, shortened: (§1)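 Seeds sown in alluvial soil kept under 0.1–0.5 cm water, greenhouse 25–30 °C; 14 d growth. Leaves treated by small sprayer with water-diluted emulsion at a predetermined rate. Effect graded by set scale, 3 weeks.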

[2] = test system: Abutilon theophrasti; assay: Test Example 5: herbicidal effect by foliage application, plastic box (symbol M); settings: 320 g/ha, 3 weeks after application
Procedure, shortened: (§2)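 Sowing in sterilized diluvial soil, 14 days' greenhouse growth at 25° C. to 30° C., then uniform small-sprayer foliar application of aqueous emulsion dilution; plants scored three weeks afterwards.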

[3] = test system: Digitaria ciliaris; assay: Test Example 4: herbicidal effect by soil treatment (symbol F); settings: application herbicide amount 320 g/ha
Procedure, shortened: (§3)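 Seeds were sown in sterilized diluvial soil, covered with about 1.5 cm of soil, and the soil surface was sprayed with a water-diluted emulsion of the compound at a predetermined rate. Plants grew in a greenhouse at 25° C. to 30° C.; effects were scored visually 3 weeks after application.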

[4] = test system: corn; assay: Test Example 5: effect on crop by foliage application, plastic box (symbol c); settings: 320 g/ha, 3 weeks after application
Procedure, shortened: (§4)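 A greenhouse held between 25° C. and 30° C. was used to grow plants sown spot-wise, beneath ~1.5 cm of soil, in boxes of sterilized diluvial soil.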

[5] = test system: Cyperus difformis; assay: Test Example 3: herbicidal effect by foliage application, Wagner pot (symbol E); settings: application herbicide amount 320 g/ha
Procedure, shortened: as §1

[6] = test system: beet; assay: Test Example 5: effect on crop by foliage application, plastic box (symbol f); settings: 320 g/ha, 3 weeks after application
Procedure, shortened: as §4

[7] = test system: Abutilon theophrasti; assay: Test Example 4: herbicidal effect by soil treatment (symbol M); settings: application herbicide amount 320 g/ha
Procedure, shortened: as §3

[8] = test system: rapeseed; assay: Test Example 5: effect on crop by foliage application, plastic box (symbol g); settings: 320 g/ha, 3 weeks after application
Procedure, shortened: as §4

[9] = test system: soybean; assay: Test Example 4: effect on crop by soil treatment (symbol d); settings: application herbicide amount 320 g/ha
Procedure, shortened: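 Crop seeds, among them rice, wheat, beet and rapeseed, were sown in sterilized diluvial soil and covered with about 1.5 cm of soil. Boxes were kept in a greenhouse at 25° C. to 30° C. for plant growth.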

[10] = test system: Lolium multiflorum Lam.; assay: Test Example 5: herbicidal effect by foliage application, plastic box (symbol K); settings: 320 g/ha, 3 weeks after application
Procedure, shortened: as §2

[11] = test system: Setaria viridis; assay: Test Example 5: herbicidal effect by foliage application, plastic box (symbol G); settings: 320 g/ha, 3 weeks after application
Procedure, shortened: as §2

[12] = test system: Echinochloa crus-galli var. crus-galli; assay: Test Example 4: herbicidal effect by soil treatment (symbol H); settings: application herbicide amount 320 g/ha
Procedure, shortened: as §3

[13] = test system: Apera spica-venti; assay: Test Example 5: herbicidal effect by foliage application, plastic box (symbol L); settings: 320 g/ha, 3 weeks after application
Procedure, shortened: as §2

[14] = test system: Amaranthus retroflexus; assay: Test Example 4: herbicidal effect by soil treatment (symbol N); settings: application herbicide amount 320 g/ha
Procedure, shortened: as §3

[15] = test system: directly sowed rice plant; assay: Test Example 3: effect on crop by foliage application, Wagner pot (symbol b); settings: application herbicide amount 320 g/ha
Procedure, shortened: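 Steps: fill a 1/10000-are Wagner pot with alluvial soil; add water and mix to submerge at 0.1–0.5 cm depth; sow rice plus Echinochloa crus-galli var. crus-galli, Leptochloa chinensis and Cyperus difformis; grow in a 25–30 °C greenhouse.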

[16] = test system: wheat; assay: Test Example 5: effect on crop by foliage application, plastic box (symbol e); settings: 320 g/ha, 3 weeks after application
Procedure, shortened: as §4

[17] = test system: Chenopodium album; assay: Test Example 5: herbicidal effect by foliage application, plastic box (symbol O); settings: 320 g/ha, 3 weeks after application
Procedure, shortened: as §2

[18] = test system: Lolium multiflorum Lam.; assay: Test Example 4: herbicidal effect by soil treatment (symbol K); settings: application herbicide amount 320 g/ha
Procedure, shortened: as §3

[19] = test system: Avena fatua; assay: Test Example 5: herbicidal effect by foliage application, plastic box (symbol I); settings: 320 g/ha, 3 weeks after application
Procedure, shortened: as §2

[20] = test system: corn; assay: Test Example 4: effect on crop by soil treatment (symbol c); settings: application herbicide amount 320 g/ha
Procedure, shortened: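 The test used sterilized diluvial soil. Seed was set down in spots and overlaid with about 1.5 cm of soil before growth in a greenhouse kept at 25° C. to 30° C.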

[21] = test system: Stellaria media; assay: Test Example 5: herbicidal effect by foliage application, plastic box (symbol P); settings: 320 g/ha, 3 weeks after application
Procedure, shortened: as §2

Structure (SMILES)	herbicidal effect on D (Leptochloa chinensis), grade 0-5 [1]	M: Abutilon theophrasti, herbicidal effect grade [2]	F: Digitaria ciliaris, herbicidal effect grade [3]	c: corn, effect on crop grade [4]	herbicidal effect on E, grade 0-5 [5]	f: beet, effect on crop grade [6]	M: Abutilon theophrasti, herbicidal effect grade [7]	g: rapeseed, effect on crop grade [8]	d: soybean, effect on crop grade [9]	K: Lolium multiflorum Lam., herbicidal effect grade [10]	G: Setaria viridis, herbicidal effect grade [11]	H: Echinochloa crus-galli var. crus-galli, herbicidal effect grade [12]	L: Apera spica-venti, herbicidal effect grade [13]	N: Amaranthus retroflexus, herbicidal effect grade [14]	effect on crop b (directly sowed rice plant), grade 0-5 [15]	e: wheat, effect on crop grade [16]	O: Chenopodium album, herbicidal effect grade [17]	K: Lolium multiflorum Lam., herbicidal effect grade [18]	I: Avena fatua, herbicidal effect grade [19]	c: corn, effect on crop grade [20]	further results
CON=C(C)CC1CC(O)=C(c2c(C)cc(-c3ccccc3)cc2C)C1=O (stereo not drawn) [6-015]	5 (Herbicidal ratio of 90% or more (almost completely withered))	2 (Herbicidal ratio of 20% or higher and lower than 40%)	5 (Herbicidal ratio of 90% or more (almost completely withered))	5 (Herbicidal ratio of 90% or more (almost completely withered))	5 (Herbicidal ratio of 90% or more (almost completely withered))	0 (Herbicidal ratio of 5% or lower (almost no effect))	3 (Herbicidal ratio of 40% or higher and lower than 70%)	4 (Herbicidal ratio of 70% or higher and lower than 90%)	0 (Herbicidal ratio of 5% or lower (almost no effect))	5 (Herbicidal ratio of 90% or more (almost completely withered))	5 (Herbicidal ratio of 90% or more (almost completely withered))	5 (Herbicidal ratio of 90% or more (almost completely withered))	5 (Herbicidal ratio of 90% or more (almost completely withered))	5 (Herbicidal ratio of 90% or more (almost completely withered))	5 (Herbicidal ratio of 90% or more (almost completely withered))	0 (Herbicidal ratio of 5% or lower (almost no effect))	4 (Herbicidal ratio of 70% or higher and lower than 90%)	5 (Herbicidal ratio of 90% or more (almost completely withered))	4 (Herbicidal ratio of 70% or higher and lower than 90%)	5 (Herbicidal ratio of 90% or more (almost completely withered))	P: Stellaria media, herbicidal effect grade [21]: 3 (Herbicidal ratio of 40% or higher and lower than 70%)
CON=C(C)CC1CC(O)=C(c2c(C)cc(C(C)=O)cc2C)C1=O (stereo not drawn) [6-026]	5 (Herbicidal ratio of 90% or more (almost completely withered))	0 (Herbicidal ratio of 5% or lower (almost no effect))	4 (Herbicidal ratio of 70% or higher and lower than 90%)	5 (Herbicidal ratio of 90% or more (almost completely withered))	5 (Herbicidal ratio of 90% or more (almost completely withered))	0 (Herbicidal ratio of 5% or lower (almost no effect))	0 (Herbicidal ratio of 5% or lower (almost no effect))	3 (Herbicidal ratio of 40% or higher and lower than 70%)	0 (Herbicidal ratio of 5% or lower (almost no effect))	5 (Herbicidal ratio of 90% or more (almost completely withered))	5 (Herbicidal ratio of 90% or more (almost completely withered))	1 (Herbicidal ratio of 5% or higher and lower than 20%)	3 (Herbicidal ratio of 40% or higher and lower than 70%)	2 (Herbicidal ratio of 20% or higher and lower than 40%)	5 (Herbicidal ratio of 90% or more (almost completely withered))	3 (Herbicidal ratio of 40% or higher and lower than 70%)	0 (Herbicidal ratio of 5% or lower (almost no effect))	1 (Herbicidal ratio of 5% or higher and lower than 20%)	5 (Herbicidal ratio of 90% or more (almost completely withered))	0 (Herbicidal ratio of 5% or lower (almost no effect))	P: Stellaria media, herbicidal effect grade [21]: 0 (Herbicidal ratio of 5% or lower (almost no effect))
CON=C(C)CC1CC(O)=C(c2c(C)cc(C)cc2OC)C1=O (stereo not drawn) [6-037, 3-hydroxy-2-(2-methoxy-4,6-dimethylphenyl)-5-{2-(methoxyimino)propyl}cyclopent-2-enone]	5 (Herbicidal ratio of 90% or more (almost completely withered))	5 (Herbicidal ratio of 90% or more (almost completely withered))	5 (Herbicidal ratio of 90% or more (almost completely withered))	5 (Herbicidal ratio of 90% or more (almost completely withered))	5 (Herbicidal ratio of 90% or more (almost completely withered))	3 (Herbicidal ratio of 40% or higher and lower than 70%)	5 (Herbicidal ratio of 90% or more (almost completely withered))	5 (Herbicidal ratio of 90% or more (almost completely withered))	2 (Herbicidal ratio of 20% or higher and lower than 40%)	5 (Herbicidal ratio of 90% or more (almost completely withered))	5 (Herbicidal ratio of 90% or more (almost completely withered))	5 (Herbicidal ratio of 90% or more (almost completely withered))	5 (Herbicidal ratio of 90% or more (almost completely withered))	3 (Herbicidal ratio of 40% or higher and lower than 70%)	5 (Herbicidal ratio of 90% or more (almost completely withered))	5 (Herbicidal ratio of 90% or more (almost completely withered))	3 (Herbicidal ratio of 40% or higher and lower than 70%)	5 (Herbicidal ratio of 90% or more (almost completely withered))	5 (Herbicidal ratio of 90% or more (almost completely withered))	5 (Herbicidal ratio of 90% or more (almost completely withered))	P: Stellaria media, herbicidal effect grade [21]: 4 (Herbicidal ratio of 70% or higher and lower than 90%)
